The values that follow come from PubChem BioAssay (NCI).

Assay in all cases: NCI anticancer screen, dose series, 48 h
The subject of experiment [1] is A549 NSCLC.
In experiment [2] the test system is DU-145 prostate.
For experiment [3], the system named is EKVX NSCLC.
For experiment [4], the system named is HCT-15 colon.
In experiment [5] the test system is HL-60(TB) leukemia.
The subject of experiment [6] is NCI-H522 lung.
Experiment [7] relates to OVCAR-3 ovarian.
Experiment [8] relates to OVCAR-5 ovarian.
The test system of experiment [9] is SK-MEL-28 melanoma.
The test system of experiment [10] is SW-620 colon.

Values joined by “and” are separate entries in the source; they are usually repeats but may differ in a detail not shown here. Identical values can stand only once.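 Compound exposure: 48 hours, 5 concentrations, 96-well plates. The concentration for 50% growth inhibition is given as GI50. Definition used: TGI = concentration required for complete inhibition of growth.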 A value given as a limit tells only on which side of the number the result lay.

As for `CC[C@@]1(O)C(=O)OCc2c1cc1n(c2=O)Cc2cc3c(Cl)c4c(cc3nc2-1)OCO4`, the GI50 in [1] is less than 0.001 µM; in experiment [2] it was less than 0.001 µM; in experiment [3] it was 5.93 µM and 1.91 µM; in [4] it was 0.215 µM and 0.178 µM; in experiment [5], less than 0.001 µM; in [7], 0.653 µM and 1.77 µM. The GI50 was 0.985 µM and 0.193 µM in experiment [8]; 0.442 µM and 1.18 µM in [9]. The TGI was 1.68 µM and 3.7 µM in [1]; more than 100 µM in [2]; more than 100 µM in experiment [3]; more than 100 µM in experiment [4]; 0.00518 µM and 0.0164 µM in experiment [5]; 7.58 µM and 60.5 µM in experiment [6]. The TGI is more than 100 µM in [7], 1.69 µM in [8], more than 100 µM in experiment [9] and more than 100 µM in experiment [10].

In the case of `Oc1[nH]c2ccc(Cl)cc2c1/C=c1/ccc2c(c1)N=C(c1ccc(C(F)(F)F)cc1)N=2`, the GI50 is 3 µM in experiment [1]; 3.12 µM in [2]; 3.16 µM in [3]; 2.64 µM in [4]; 2.61 µM in experiment [5]; 1.66 µM in [6]. In addition, the GI50 in experiment [7] was 1.56 µM; in experiment [8], 3.1 µM; in [9], 2.35 µM; in experiment [10] it was 1.97 µM. Besides, the TGI in experiment [1] turned out to be 10.8 µM; in experiment [2], 10.4 µM; in experiment [3], 18.3 µM; in experiment [4], 8.91 µM; in [5], 5.55 µM; in [6] it was 3.24 µM. The TGI in experiment [7] was found to be 3.21 µM; in [8], 12.3 µM; in experiment [9], 6.71 µM; in experiment [10] it was 4.1 µM.

Regarding `O=[N+]([O-])c1ccc(Oc2cccc(C(F)(F)F)c2)c([N+](=O)[O-])c1`, the GI50 was 4.56 µM in [1]; 2.33 µM in experiment [2]; 7.11 µM in [3]; 2.41 µM in experiment [4]; 1.7 µM in [5]; 2.11 µM in experiment [6]. Moreover, the GI50 in experiment [7] is 3.19 µM; in experiment [8], 4.08 µM; in [9] it was 6.47 µM; in experiment [10] it was 0.451 µM. The TGI is 16.5 µM in experiment [1]; 5.38 µM in [2]; 22.5 µM in experiment [3]; 10.3 µM in experiment [4]; 4.65 µM in experiment [5]; 5.7 µM in [6]. Further, the TGI in [7] was determined as 9.21 µM; in experiment [8], 17.6 µM; in experiment [9], 19.9 µM; in experiment [10], 10.1 µM.

In the case of `O=C1c2ccccc2-c2c1c1c(O)cccc1n2CCCc1ccccc1`, the GI50 in [1] is 9.61 µM; in [2], 28.1 µM; in experiment [3] it was 10.3 µM; in experiment [4] it was 4.11 µM; in [5], 28.1 µM; in [6], 3.85 µM. Moreover, the GI50 in experiment [7] was 9.82 µM; in experiment [8], 64 µM; in experiment [9], more than 100 µM; in [10], 51.9 µM. Moreover, the TGI in [1] was more than 100 µM; in experiment [2], more than 100 µM; in experiment [3], 98.3 µM; in [4], more than 100 µM; in experiment [5], more than 100 µM; in experiment [6], 38.5 µM. The TGI in experiment [7], in [8], in experiment [9] and in [10] was more than 100 µM throughout.

`Cc1ccc2c(n1)C(=O)C(Cl)=C(Nc1ccc(N3CCN(C)CC3)cc1)C2=O`: the GI50 in experiment [1] is 14.6 µM; in experiment [2], 1.76 µM; in [3], 1.73 µM; in experiment [4] it was 1.84 µM; in experiment [5], 2.22 µM; in experiment [6] it was 1.86 µM. In addition, the GI50 in experiment [7] was 1.63 µM; in [8] it was 1.82 µM; in experiment [9], 1.88 µM; in [10], 2.01 µM. Moreover, the TGI in experiment [1] was 30 µM; in experiment [2], 3.25 µM; in experiment [3], 3.12 µM; in experiment [4], 3.93 µM; in experiment [5], 4.89 µM; in experiment [6], 4.78 µM. The TGI in experiment [7] was determined as 3.13 µM; in experiment [8], 3.34 µM; in experiment [9], 3.31 µM; in experiment [10], 4.52 µM.

For the molecule `C=C1C(=O)O[C@H]2[C@H]1CC/C(COC(=O)c1cccc3ccccc13)=C\CC[C@@]1(C)O[C@@H]21`, the GI50 in experiment [1] was 2.12 µM; in experiment [2], 1.5 µM; in experiment [3], 1.81 µM; in [4] it was 1.19 µM; in experiment [5] it was 1.66 µM; in [6], 1.66 µM. The GI50 in experiment [7] is 1.39 µM; in [8] it was 2.27 µM; in experiment [9] it was 1.82 µM; in experiment [10], 1.08 µM. Besides, the TGI in [1] was determined as 5.4 µM; in experiment [2] it was 2.86 µM; in experiment [3] it was 3.94 µM; in [4], 2.89 µM; in [5], 7.56 µM; in experiment [6], 3.22 µM. Also, the TGI in experiment [7] was 2.76 µM; in experiment [8], 5.58 µM; in experiment [9], 3.64 µM; in [10] it was 2.87 µM.
